Where a name gives a salt, the structure may show the parent alone. Read-outs that look alike come from different tables or passages of the source.
Key:
[1] = Example 1: clinical safety of single inhaled doses in healthy adults; format: in vivo, human
Description: In a controlled clinical environment, 38 healthy adults received single doses of either 0.9% saline solution as placebo or up to 750 mg of ASA by inhalation (placebo n=10, ASA n=28).

[2] = system: influenza virus infection; settings: for Time to alleviation of clinical influenza symptoms (T1), Mean: 800 mg LASAG (400 mg ASA) inhaled three times daily
[3] = in vivo

Compound: CC(=O)Oc1ccccc1C(=O)O [ASA, acetylsalicylic acid]
- Serious events or severe adverse effects ([1]; single inhaled doses up to 750 mg ASA): no serious events or severe adverse effects were observed
- Tolerability of administered doses ([1]; single inhaled doses up to 750 mg ASA as LASAG solution about 200 mg/ml, AKITA Apixneb): overall well tolerated
- Effect on pulmonary function tests parameters ([1]; single inhaled doses up to 750 mg ASA, higher doses): no effect on pulmonary function tests parameters

Compound: CC(=O)Oc1ccccc1C(=O)O [LASAG, D,L-lysine acetylsalicylate glycine salt]
- Time to alleviation of clinical influenza symptoms (T1), Max. ([2]; CSS ≥14, per protocol set): 67.4 h
- Time to alleviation of clinical influenza symptoms (T1), Min. ([2]; CSS ≥14, per protocol set): 9.8 h
- Time to alleviation of clinical influenza symptoms (T1), Q1 ([2]; CSS ≥14, per protocol set): 23.5 h
- Time to alleviation of clinical influenza symptoms (T1), Q3 ([2]; CSS ≥14, per protocol set): 52.4 h
- Time to alleviation of clinical influenza symptoms (T1), Mean ([2]; CSS ≥14, per protocol set): 38.3 h
- Time to alleviation of clinical influenza symptoms (T1), Median ([2]; CSS ≥14, per protocol set, 800 mg LASAG inhaled three times daily): 27.8 h
- Time to alleviation of clinical influenza symptoms (T1), Max. ([2]; CSS ≥17, per protocol set): 66.9 h
- Time to alleviation of clinical influenza symptoms (T1), Median ([2]; CSS ≥17, per protocol set): 47.0 h
- Time to alleviation of clinical influenza symptoms (T1), Min. ([2]; CSS ≥17, per protocol set): 23.5 h
- Time to alleviation of clinical influenza symptoms (T1), Q1 ([2]; CSS ≥17, per protocol set): 27.8 h
- Time to alleviation of clinical influenza symptoms (T1), Q3 ([2]; CSS ≥17, per protocol set): 62.1 h
- Time to alleviation of clinical influenza symptoms (T1), Mean ([2]; CSS ≥17, per protocol set): 44.7 h
- Time to alleviation of influenza symptoms T1 ([2]; first patient group with CSS (log rank p 0.0313), placebo 51.6 h): 38.3 h
- Difference to placebo in time required for alleviation of clinical influenza symptoms ([2]; human, in vivo): no significant difference
- Recovery by baseline corrected daily activity score (DAS) ([2]; human, in vivo): better recovery than the placebo group
- Number of inhalations after which patients were alleviated ([2]; patients with CSS, assuming start with the morning inhalation, placebo about 9): about 6 inhalations
- Time to alleviation of influenza symptoms T1 ([2]; second patient group with CSS (log rank p 0.0152), placebo 71.5 h): 44.7 h
- Number of adverse events (AE) ([3]; human): 41
- Number of patients affected by AE ([3]; human): 23
- Required medication due to AEs ([3]; human): About 56.1%
- Share of all adverse events (AE) ([3]; human): 49.4%
- Share of group patients affected by AE ([3]; human): 41.1%
- Death or other significant adverse events [3]: no case of death or other significant adverse events
- Difference to placebo with regard to tolerability [3]: no significant differences

Source: patent US20220387455A1, “TREATMENT OF MODERATE TO SEVERE INFLUENZA” (priority 2015, published 2022)
